Assays:
[1] = phosphatidylcholines; cited from earlier work
[2] = cited from earlier work
[3] = Temperature sensitivity of in vitro T1 relaxivity (r1), 0.47 T; assay type: physicochemical
From the text: FIG. 1 of the accompanying drawings and Table 5 below show the temperature sensitivity of in vitro T1 relaxivity (r1) for liposome encapsulated GdDTPA-BMA and GdHPDO3A, respectively (0.47T).

Row | Compound | Transition temperature Tc [1] [°C] | also measured
1 | CCCCCCCCCCCCCCCCCCCCC(=O)OC[C@H](COP(=O)([O-])OCC[N+](C)(C)C)OC(=O)CCCCCCCCCCCCCCCCCCCC [PC 21:0] | 72 | 
2 | CCCCCCCCCCCCC(=O)OC[C@H](COP(=O)([O-])OCC[N+](C)(C)C)OC(=O)CCCCCCCCCCCC [PC 13:0] | 14 | 
3 | CCCCCCCCCCC/C=C\CCCCC(=O)OC[C@H](COP(=O)([O-])OCC[N+](C)(C)C)OC(=O)CCCC/C=C\CCCCCCCCCCC [PC 18:1c6] | 1 | 
4 | CCCCCCCCCCCCOC(=O)C(C)n1ccnc1 (stereo not shown) [DIP] |  | pKa [2]: 6.8; charged form ([2]; lysosomal pH (5.2)): over 97%; non-ionized (non/low surfactant activity) form ([2]; pH 7.3-7.4 (physiological)): 80%
5 | CCCCCCCCCCCCCCCCCCCCCC(=O)OCC(COP(=O)([O-])OCC[N+](C)(C)C)OC(=O)CCCCCCCCCCCCCCCCCCCCC (stereo not shown) [PC 22:0, Dibehenoyl-PC] | 75 | 
6 | CCCCCCCC/C=C\CCCCCCCC(=O)OC[C@H](COP(=O)([O-])OCC[N+](C)(C)C)OC(=O)CCCCCCC/C=C\CCCCCCCC [PC 18:1c9] | −20 | 
7 | CCCCCCCCCCCCCCCCCCCCCCC(=O)OC[C@H](COP(=O)([O-])OCC[N+](C)(C)C)OC(=O)CCCCCCCCCCCCCCCCCCCCCC [PC 23:0] | 79 | 
8 | CCCCCCCCCCCCCCCCCC(=O)OC[C@H](COP(=O)([O-])OCC[N+](C)(C)C)OC(=O)CCCCCCCCCCCCCCC [PC 18:0-16:0] | 44 | 
9 | CCCCCCCC/C=C/CCCCCCCC(=O)OC[C@H](COP(=O)([O-])OCC[N+](C)(C)C)OC(=O)CCCCCCC/C=C/CCCCCCCC [PC 18:1t9] | 12 | 
10 | CCCCCCCCCCCCCCCCCC(=O)O[C@H](COC(=O)CCCCCCCCCCCCC)COP(=O)([O-])OCC[N+](C)(C)C [PC 14:0-18:0] | 40 | 
11 | CC(O)CN1CCN(CC(=O)[O-])CCN(CC(=O)[O-])CCN(CC(=O)[O-])CC1.[Gd+3] (stereo not shown) [Control, GdHPDO3A] |  | r1 ([3]; 20 °C): 4.53 s⁻¹ mM⁻¹; r1 ([3]; 25 °C): 4.27 s⁻¹ mM⁻¹; r1 ([3]; 30 °C): 3.94 s⁻¹ mM⁻¹; r1 ([3]; 37 °C): 3.75 s⁻¹ mM⁻¹; r1 ([3]; 45 °C): 3.07 s⁻¹ mM⁻¹; r1 ([3]; 55 °C): 2.82 s⁻¹ mM⁻¹; r1 ([3]; 60 °C): 2.54 s⁻¹ mM⁻¹
12 | CCCCCCCCCCCCCCCCC(=O)OC[C@H](COP(=O)([O-])OCC[N+](C)(C)C)OC(=O)CCCCCCCCCCCCCCCC [PC 17:0] | 48 | 
13 | CCCCCCCCCCCCCCCC(=O)O[C@H](COC(=O)CCCCCCCCCCCCC)COP(=O)([O-])OCC[N+](C)(C)C [PC 14:0-16:0] | 35 | 
14 | CCCCCCCCCCCCCCCCCCCC(=O)OC[C@H](COP(=O)([O-])OCC[N+](C)(C)C)OC(=O)CCCCCCCCCCCCCCCCCCC [PC 20:0] | 66 | 
15 | CCCCCCCCCCCCCCCCCCCCCCCC(=O)OC[C@H](COP(=O)([O-])OCC[N+](C)(C)C)OC(=O)CCCCCCCCCCCCCCCCCCCCCCC [PC 24:0] | 80 | 
16 | CCCCCCCCCCCCCCCCCC(=O)O[C@H](COC(=O)CCCCCCCCCCCCCCC)COP(=O)([O-])OCC[N+](C)(C)C [PC 16:0-18:0] | 49 | 
17 | CCCCCCCCCCCCCCC(=O)OC[C@H](COP(=O)([O-])OCC[N+](C)(C)C)OC(=O)CCCCCCCCCCCCCC [PC 15:0] | 33 | 
